Laboratory results taken from patent US12583851B2, “Heteroaryl-substituted pyrazine derivatives as pesticides” (Elanco Animal Health GmbH, priority 2019, dated 2026).

Assays:
Format in all cases: in vivo
[1] = test system: larvae of the banded cucumber beetle (Diabrotica balteata); assay: Diabrotica balteata spray test; conditions: 168 h, after 7 days, read-out: efficacy (seedling growth); for pest or weed control at 6.4 µg/disc, 20 g/ha: 20 g/ha (=6.4 μg/well); for pest or weed control at 32 µg/disc, 100 g/ha: 100 g/ha (=32 μg/well)
Summary of the method: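 Germinated wheat seedlings (5 per well, on agar) sprayed with compound in acetone/DMF with emulsifier-containing water, then infested with 10–20 Diabrotica balteata larvae. Efficacy (%) scored after 7 days from seedling growth: 100% = growth as untreated uninfested control, 0% = no seedlings grown.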

[2] = test system: larvae of the southern green stink bug (Nezara viridula); assay: Nezara viridula spray test; conditions: 96 h, 500 g/ha, barley plants, after 4 days
Procedure: Nezara viridula—Spray Test
Solvent: 78.0 parts by weight of acetone • • 1.5 parts by weight of dimethylformamide
(§1) Emulsifier: alkylarylpolyglycol ether
(§2) To produce a suitable preparation of active compound, 1 part by weight of active compound is mixed with the stated amount of solvent, and the concentrate is diluted with water, containing an emulsifier concentration of 1000 ppm, to the desired concentration. Further test concentrations are prepared by dilution with emulsifier containing water.
Barley plants (Hordeum vulgare) infested with larvae of the southern green stink bug (Nezara viridula) are sprayed with a test solution containing the desired concentration of the active ingredient.
After 4 days mortality in % is determined. 100% means all the stink bugs have been killed; 0% means none of the stink bugs have been killed.

[3] = test system: fall armyworm larvae (Spodoptera frugiperda); assay: Spodoptera frugiperda spray test; conditions: 168 h, maize leaf sections, after 7 days
Summary of the method: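 Compound dissolved in acetone/dimethylformamide, diluted in water containing 1000 ppm alkylarylpolyglycol ether emulsifier and sprayed onto maize leaf sections. Dried sections were infested with larvae; % mortality scored after 7 days (100% = all caterpillars killed, 0% = none).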

[4] = test system: Rhipicephalus (Boophilus) microplus larvae (strain Parkhurst, resistant against synthetic pyrethroids); assay: Rhipicephalus (Boophilus) microplus in-vitro contact test, larval cattle tick; conditions: after 48 hours, read-out: efficacy (larvae dead or moribund); for pest or weed control at 1 µg/cm2, 100 g/ha: 1 μg/cm^2 (=100 g/ha); for pest or weed control at 5 µg/cm2, 500 g/ha: 5 μg/cm^2 (=500 g/ha)
Summary of the method: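 Acetone solutions were coated onto glass tube walls (900 ppm gives 5 μg/cm²); after drying, 20–50 pyrethroid-resistant Parkhurst larvae added and held at 27 °C, 85% RH. At 48 h, efficacy as % larvae dead or moribund, judged by loss of negative geotaxis.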

[5] = test system: adult brown dog ticks (Rhipicephalus sanguineus); assay: Rhipicephalus sanguineus in-vitro contact test, adult brown dog ticks; conditions: 48 h, after 48 hours, read-out: efficacy (ticks dead or moribund); for pest or weed control at 1 µg/cm2, 100 g/ha: 1 μg/cm^2 (=100 g/ha); for pest or weed control at 5 µg/cm2, 500 g/ha: 5 μg/cm^2 (=500 g/ha)
Procedure: Rhipicephalus sanguineus—In-Vitro Contact Tests with Adult Brown Dog Ticks
(§3) 9 mg compound is solved in 1 mL acetone and diluted with acetone to the desired concentration. 250 of the test solution is filled in 25 mL glass test tubes and homogeneously distributed on the inner walls by rotation and tilting on a shaking device (2 h at 30 rpm). With a compound concentration of 900 ppm, an inner surface of 44.7 cm^2 and a homogeneous distribution, a dose of 5 μg/cm^2 is achieved.
(§4) After the solvent has evaporated, each test tube is filled with 5-10 adult brown dog ticks (Rhipicephalus sanguineus), closed with a perforated lid and incubated in a lying position at room temperature and relative humidity. After 48 hours efficacy is determined. The ticks are patted on the ground of the tubes and are incubated on a heating plate at 45-50° C. for at most 5 minutes Immotile or uncoordinated moving ticks, which are not able to escape the heat by climbing upwards, are marked as dead or moribund.
An efficacy of 100% means all ticks are dead or moribund; 0% means no ticks are dead or moribund.

[6] = test system: green peach aphid (Myzus persicae); assay: Myzus persicae spray test; conditions: foliar, 120 h, Chinese cabbage leaf disks, after 5 days
Procedure: Myzus persicae—Spray Test
Solvent: 78.0 parts by weight acetone • 1.5 parts by weight dimethylformamide
as §1
as §2, with “solvents” for “solvent,”, “and” for “and the concentrate”
Chinese cabbage (Brassica pekinensis) leaf disks infected with all instars of the green peach aphid (Myzus persicae), are sprayed with a preparation of the active ingredient of the desired concentration.
After 5 days mortality in % is determined. 100% means all aphids have been killed and 0% means none of the aphids have been killed.

[7] = test system: adult engorged female ticks (Rhipicephalus microplus); assay: Rhipicephalus (Boophilus) microplus injection test; conditions: 168 h, 4 μg/animal, egg deposition after 7 days, read-out: efficacy (infertile eggs)
Procedure: Rhipicephalus (Boophilus) microplus—Injection Test
(§5) Solvent: dimethyl sulfoxide
To produce a suitable preparation of active compound, 10 mg of active compound are dissolved in 0.5 mL solvent, and the concentrate is diluted with solvent to the desired concentration.
Five adult engorged female ticks (Rhipicephalus microplus) are injected with 1 μL compound solution into the abdomen. The ticks are transferred into replica plates and incubated in a climate chamber.
After 7 days egg deposition of fertile eggs is monitored. Eggs where fertility is not visible are stored in a climate chamber till hatching after about 42 days. An efficacy of 100% means all eggs are infertile; 0% means all eggs are fertile.

[8] = test system: adult unfed cat fleas (Ctenocephalides felis); assay: Ctenocephalides felis oral test; conditions: 48 h, 100 ppm in citrated cattle blood, after 2 days
Procedure: Ctenocephalides felis—Oral Test
as §5
To produce a suitable preparation of active compound, 10 mg of active compound are dissolved in 0.5 mL solvent, and the concentrate is diluted with citrated cattle blood to the desired concentration.
Approximately 20 adult unfed cat fleas (Ctenocephalides felis) are placed in a flea chamber whose top and bottom is covered with gauze. A chamber whose bottom is sealed with parafilm, is filled with the blood-compound solution and placed on top of the flea chamber, so that the fleas can suck the blood. The blood chamber is heated to 37° C. whereas the flea chamber is kept at room temperature.
After 2 days mortality in % is determined. 100% means all the fleas have been killed; 0% means none of the fleas have been killed.

[9] = test system: adult cat fleas (Ctenocephalides felis); assay: Ctenocephalides felis in-vitro contact test, adult cat flea; conditions: after 48 hours, read-out: efficacy (fleas dead or moribund); for pest or weed control at 1 µg/cm2, 100 g/ha: 1 μg/cm^2 (=100 g/ha); for pest or weed control at 5 µg/cm2, 500 g/ha: 5 μg/cm^2 (=500 g/ha)
Procedure: Ctenocephalides felis—In-Vitro Contact Tests Adult Cat Flea
as §3, with “1 ml” for “1 mL”, “250 μL” for “250”
as §4, with “cat fleas (Ctenocephalides felis),” for “brown dog ticks (Rhipicephalus sanguineus),”, “fleas” for “ticks”, “fleas,” for “ticks,”
An efficacy of 100% means all fleas are dead or moribund; 0% means no fleas are dead or moribund.

Row | SMILES | pest or weed control at 6.4 µg/disc, 20 g/ha [1] [%] | pest or weed control at 32 µg/disc, 100 g/ha [1] [%] | mortality at 500 g/ha [2] [%] | mortality at 100 g/ha [3] [%] | pest or weed control at 1 µg/cm2, 100 g/ha [4] [%] | pest or weed control at 5 µg/cm2, 500 g/ha [4] [%] | pest or weed control at 1 µg/cm2, 100 g/ha [5] [%] | pest or weed control at 5 µg/cm2, 500 g/ha [5] [%] | mortality at 100 g/ha [6] [%] | pest or weed control at 0.004 mg [7] [%] | mortality at 100 ppm [8] [%] | pest or weed control at 1 µg/cm2, 100 g/ha [9] [%] | pest or weed control at 5 µg/cm2, 500 g/ha [9] [%]
1 | CCN(C)C(=O)c1cnc(-c2ncc(C)nc2[C@H](C)NC(=O)c2cc(C(F)(F)F)cc(C(F)(F)F)c2)s1 [Example I-155, (+)-2-(3-{(1S)-1-[3,5-Bis(trifluoromethyl)benzamido]ethyl}-5-methylpyrazin-2-yl)-N-ethyl-N-methyl-1,3-thiazole-5-carboxamide] | 100 | 100 | 100 | 100 | – | – | – | – | – | – | – | – | –
2 | CC(NC(=O)c1cc(C(F)(F)F)cc(C(F)(F)F)c1)c1nccnc1-n1cc(C(=O)N(C)CC2CC2)cn1 (racemic) [Example I-131, (rac)-1-(3-{1-[3,5-Bis(trifluoromethyl)benzamido]ethyl}pyrazin-2-yl)-N-(cyclopropylmethyl)-N-methyl-1H-pyrazole-4-carboxamide] | 100 | 100 | 100 | 100 | 100 | 100 | 80 | 80 | – | – | – | – | –
3 | COc1ccc(-c2nccnc2C(C)NC(=O)c2cc(Cl)cc(OC(F)(F)F)c2)nc1 (centres unmarked) [Example I-28] | 100 | 80 | – | – | 90 | 80 | – | – | 90 | – | – | – | –
4 | CCN(C)C(=O)c1cnc(-c2nccnc2[C@@H](C)NC(=O)c2cc(C(F)(F)F)cc(C(F)(F)F)c2)s1 [Example I-84, 2-(3-{(1R)-1-[3,5-bis(trifluoromethyl)benzamido]ethyl}pyrazin-2-yl)-N-ethyl-N-methyl-1,3-thiazole-5-carboxamide] | – | – | – | – | – | – | – | – | 90 | – | – | – | –
5 | CC(NC(=O)c1cc(Cl)cc(S(C)(=O)=O)c1)c1nccnc1-n1cc(C(F)(F)F)cn1 (racemic) [Example I-93, (rac)-3-Chloro-5-(methanesulfonyl)-N-[1-{3-[4-(trifluoromethyl)-1H-pyrazol-1-yl]pyrazin-2-yl}ethyl]benzamide] | 100 | 100 | 100 | 100 | 100 | 100 | – | 80 | – | – | – | – | –
6 | CC(NC(=O)c1cc(Cl)cc(C(F)(F)F)c1)c1nccnc1-c1ccc(Cl)cn1 (centres unmarked) [Example I-24] | 100 | 100 | – | 100 | 90 | 90 | – | – | – | 100 | 100 | – | –
7 | CC(NC(=O)c1cc(C(F)(F)F)cc(C(F)(F)F)c1)c1nccnc1-c1ncc(C(=O)N(C)CC(F)(F)F)s1 (racemic) [Example I-65, (rac)-2-(3-{1-[3,5-Bis(trifluoromethyl)benzamido]ethyl}pyrazin-2-yl)-N-methyl-N-(2,2,2-trifluoroethyl)-1,3-thiazole-5-carboxamide] | – | – | – | 100 | 100 | 100 | – | 80 | – | 80 | 80 | 100 | 100
8 | CC(NC(=O)c1cc(Cl)cc(S(C)(=O)=O)c1)c1nccnc1-n1cc(Cl)cn1 (racemic) [Example I-99, (rac)-3-Chloro-N-{1-[3-(4-chloro-1H-pyrazol-1-yl)pyrazin-2-yl]ethyl}-5-(methanesulfonyl)benzamide] | – | – | 100 | – | – | – | – | – | – | – | – | – | –
9 | CC(NC(=O)c1cncc(C(F)(F)F)c1)c1nccnc1-c1nccs1 (racemic) [Example I-2, (rac)-N-(1-(3-(Thiazol-2-yl)pyrazin-2-yl)ethyl)-5-(trifluoromethyl)nicotinamide] | – | – | – | – | – | – | – | 100 | – | 100 | 90 | – | –
10 | CC(NC(=O)c1cc(Cl)cc(OC(F)(F)F)c1)c1nccnc1-n1cc(C(=O)N(C)CC2CC2)cn1 (racemic) [Example I-133, (rac)-1-(3-{1-[3-Chloro-5-(trifluoromethoxy)benzamido]ethyl}pyrazin-2-yl)-N-(cyclopropylmethyl)-N-methyl-1H-pyrazole-4-carboxamide] | 100 | 100 | 100 | 100 | 100 | 100 | 100 | 100 | – | – | – | 100 | 100
11 | CC(NC(=O)c1cc(C(F)(F)F)cc(C(F)(F)F)c1)c1nccnc1-n1cc(C(=O)N(C)C2CC2)cn1 (racemic) [Example I-139, (rac)-1-(3-{1-[3,5-Bis(trifluoromethyl)benzamido]ethyl}pyrazin-2-yl)-N-cyclopropyl-N-methyl-1H-pyrazole-4-carboxamide] | – | 80 | 100 | 100 | 100 | 100 | – | – | – | – | – | – | –
